Results as given in patent US12599130B2, “Liquid agricultural adjuvant” (Oro Agri Inc., priority 2019, dated 2026).

Experiments:
[1] = Paraffin wax solubility test; format: physicochemical; conditions: 2.0 g paraffin wax in 98 g solvent, 25° C.; for OBSERVATION: up to 24 hours stirring; for DISSOLUTION TIME: stirring at 350 rpm
wheat = assay: Field trial: wheat cover crop burndown with glyphosate plus adjuvant at full tillering; format: in vivo; conditions: adjuvant rate 10 g/L, glyphosate 420 g ae/ha
Protocol: Adjuvant x Adjuvant rate effect on wheat cover crop burndown with glyphosate at full tillering stage.
A bifactorial trial was conducted consisting of […] treatments, comprised of a combination of 10 adjuvants (factor A) and 2 adjuvants rates (factor B), plus three reference treatments (Table 6).
Prior to treatment application, two plots per block were chosen to record wheat height and tiller number per plant. In each plot, the height of the tallest and shortest plant was measured, and the tillers counted.
Herbicide application was done using a single-nozzle boom connected to a backpack CO2 pressurized system. Each plot measured 3 ft×20 ft. After 14 and 28 days of application, wheat desiccation was evaluated visually using a 0-100% scale, where 0 corresponds to absence of injury symptoms and 100% corresponds to plant death.

Row | SMILES | OBSERVATION [1] | DISSOLUTION TIME [1] [min] | also measured
1 | CCCCCCCCCC(=O)N(C)C | UNDISSOLVED |  | 
2 | N.N.O=S(=O)(O)O [Ammonium sulfate] |  |  | Wheat desiccation (%) (wheat; 14 DAT): 80%; Wheat desiccation (%) (wheat; 28 DAT): 95%
3 | O=C1CCCCC1 [CYCLOHEXANONE] | UNDISSOLVED |  | 
4 | CC1COC(=O)O1 (stereo not drawn) [PROPYLENE CARBONATE] | UNDISSOLVED |  | 
5 | OCC1CCCO1 (stereo not drawn) [TETRAHYDROFURFURAL ALCOHOL] | UNDISSOLVED |  | 

More lines, main results first:

Row | OBSERVATION [1] | DISSOLUTION TIME [1] [min] | SMILES | also measured
6 |  | 930 | CCCCCCCCCCCC(=O)OCC(CC)CCCC (stereo not drawn) [2-ETHYLHEXYL LAURATE] | 
7 | UNDISSOLVED |  | C[S+](C)[O-] [DIMETHYL SULFOXIDE] | 
8 |  | 620 | CCCCCCCCCCCC(=O)OCCC(C)C [ISOAMYL LAURATE] | 
9 |  | 340 | CCCCCCCCCCCC(=O)OCC(C)C [ISOBUTYL LAURATE] | 
10 |  | 102 | CCCCCCCCCCCC(=O)OC(C)C [ISOPROPYL LAURATE] | 
11 |  | 300 | CCCCCCCCCCCC(=O)OC [METHYL LAURATE] | 
